Reference: patent US8586082B2, “Solid orally administerable pharmaceutical dosage forms with rapid active principle release” (Bayer Intellectual Property GmbH, priority 2005, dated 2013)
Values after ≈ are worked out from the molar mass of the structure shown.

Columns and labels:
[1] = Bioavailability, comparative study in rats (3 mg/kg); assay type: in vivo; conditions: male Wistar rats, suspension, geometric means
Method: The bioavailability was investigated by administering 3 mg/kg active ingredient (I) in each case to male Wistar rats: • a) in the form of exemplary formulation 1 (suspended in water) • b) in the form of exemplary formulation 2 (suspended in water) • c) in the form of exemplary formulation 3 (suspended in water) • d) in the form of the micronized crystalline active ingredient in thermodynamically stable crystal modification I (suspended in 0.5% strength aqueous methylhydroxyethylcellulose (proprietary name: Tylose MH 300))

[2] = In vitro release, USP apparatus 2 (paddle), non-sink conditions (supersaturation); assay type: physicochemical; conditions: 75 rpm, 900 ml acetate buffer pH 4.5, 37° C., active ingredient dose 20 mg
Method: The in vitro release investigations are carried out by USP release method with apparatus 2 (paddle) at a temperature of 37° C. The speed of rotation of the stirrer is 75 rpm (revolutions per minute) in 900 ml of an acetate buffer solution of pH 4.5, which is prepared from 29.9 g of sodium acetate trihydrate and 16.6 ml of glacial acetic acid in 10 l of water.
The investigations in this connection take place under sink or non-sink conditions.
Non-sink conditions: The investigations for examining the supersaturation (increase in solubility) take place without addition of a surfactant and with a dose of 20 mg of active ingredient (I) to be released.
To illustrate the supersaturation behaviour of exemplary formulations 1 to 6 (see below), as comparison the in vitro release (non-sink conditions) of the micronized crystalline active ingredient (I) in the thermodynamically stable crystal modification I and of a rapid-release tablet formulation produced by fluidized bed granulation and comprising micronized crystalline active ingredient (I) in crystal modification I were determined.

[3] = Bioavailability, comparative study in dogs (150 mg/kg); assay type: in vivo; conditions: Beagle dogs, crossover, suspension, geometric means
[4] = Solubility in water of active ingredient (I); assay type: physicochemical; conditions: 25° C., crystal modification I

| SMILES | AUC (0-24)norm [1] | Cmax, norm [1] | Cmax ([1]; rat, in vivo, oral) | AUC(0-t) ([1]; rat, in vivo, oral, read-out: AUC (0-24)) | Release ([2]; 15 min) | Release ([2]; 30 min) | Release ([2]; 60 min) | Release ([2]; 90 min) | AUC (0-24)norm [3] | Cmax, norm [3] | Cmax ([3]; dog, in vivo, oral) | AUC(0-t) ([3]; dog, in vivo, oral, read-out: AUC (0-24)) | solubility [4] |
| --- | --- | --- | --- | --- | --- | --- | --- | --- | --- | --- | --- | --- | --- |
| O=C(NC[C@H]1CN(c2ccc(N3CCOCC3=O)cc2)C(=O)O1)c1ccc(Cl)s1 [Comparative Formulation 1.1, 5-Chloro-N-({(5S)-2-oxo-3-[4-(3-oxo-4-morpholinyl)phenyl]-1,3-oxazolidin-5-yl}methyl)-2-thiophenecarboxamide] | 0.254 kg·h/L | 0.074 kg/L | 222 ng/mL | 762 ng·h/mL | 23% | 34% | 41% | 44% | 0.081 kg·h/L | 0.015 kg/L | 2220 ng/mL | 12200 ng·h/mL | – |
| O=C(NC[C@H]1CN(c2ccc(N3CCOCC3=O)cc2)C(=O)O1)c1ccc(Cl)s1 [active ingredient (I), 5-Chloro-N-({(5S)-2-oxo-3-[4-(3-oxo-4-morpholinyl)phenyl]-1,3-oxazolidin-5-yl}methyl)-2-thiophenecarboxamide] | – | – | – | – | – | – | – | – | – | – | – | – | ~7 µg/mL (≈ 16.1 µM) |
